Reference: ChEMBL document CHEMBL1201862, “PubChem BioAssay data set” (2004)
Calls of active or inactive are those of the source.

Assays:
[1] = molecular target: T1, Trace amine-associated receptor 1 (Homo sapiens, UniProt Q96RJ0); assay: Fluorescence-based cell-based high throughput dose response assay to identify agonists of the human trace amine associated receptor 1 (TAAR1).; type: functional
T1 sequence (Q96RJ0 whole entry): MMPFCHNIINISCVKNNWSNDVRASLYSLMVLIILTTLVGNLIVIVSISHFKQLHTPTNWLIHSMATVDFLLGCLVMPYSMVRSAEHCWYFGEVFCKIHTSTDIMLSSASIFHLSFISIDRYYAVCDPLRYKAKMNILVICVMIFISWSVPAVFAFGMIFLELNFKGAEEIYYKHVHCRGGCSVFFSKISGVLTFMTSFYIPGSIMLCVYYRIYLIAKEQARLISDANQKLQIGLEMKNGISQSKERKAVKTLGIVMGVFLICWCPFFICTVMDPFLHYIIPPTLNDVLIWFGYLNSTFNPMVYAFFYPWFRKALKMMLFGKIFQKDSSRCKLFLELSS

cells [2] = type: functional, cell-based
cells [3] = type: functional, cell-based; remark: listed apart in the source
[4] = molecular target: T1, Trace amine-associated receptor 1; assay: Counterscreen for agonists of the human trace amine associated receptor 1 (hTAAR1): Fluorescence-based cell-based high throughput dose response assay to identify hTAAR1 agonist that also desensitize TAAR1 receptor response.; type: functional
[5] = Concentration-dependent survival of SW480 colon cancer line, luminescence detection with CellTiter-Glo, half-maximal inhibitory concentration (AID 1117338); type: functional
[6] = cytotoxicity toward HCT116 cells – cell-based, CellTiter-Glo luminescence, IC50, dose response (AID 1117332); type: functional; conditions: HCT-116
[7] = cytotoxicity toward Colo320 cells – cell-based, CellTiter-Glo luminescence, IC50, dose response (AID 1117334); type: functional; conditions: COLO 320
[8] = cytotoxicity toward HT-29 cells – cell-based, CellTiter-Glo luminescence, IC50, dose response (AID 1117330); type: functional
[9] = SNU-C1 cell viability reduction, dose response, CellTiter-Glo luminescence (AID 1117323); type: functional, cell-based
[10] = RKO cell viability reduction, dose response, CellTiter-Glo luminescence (AID 1117322); type: functional
[11] = HeLa 4N DNA content increase, dose response, cell-based, IC50 (AID 1117351); type: functional
[12] = HeLa 2N DNA content increase, dose response, cell-based, IC50 (AID 1117349); type: functional
[13] = HCT116 cell viability decrease, GSK3B pretreatment – CellTiter-Glo, IC50, dose response (AID 1117339); type: functional; conditions: HCT-116
[14] = CellTiter-Glo luminescent dose response of DLD-1 viability loss (AID 1117352); type: functional
[15] = inhibitors of Vif binding to APOBEC3G peptide, primary screen, biochemical, TR-FRET, GST-Vif 1-94, biotin-A3G peptide, dose response retest (AID 1117319); type: functional;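 further: TR-FRET signal of purified GST-Vif binding a biotinylated A3G peptide; inhibitors lower the FRET signal by blocking Vif and A3G binding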
[16] = Glucagon-like peptide 1 release potency, NCI-H716 cell line, dose-response, half-maximal inhibitory concentration (AID 1117344); type: functional, cell-based
[17] = half-maximal inhibitory concentration for glucagon-like peptide-1 release, STC-1 cell line, dose-response (AID 1117345); type: functional, cell-based
cells [18] = assay: cells
[19] = molecular target: T2, Oxysterols receptor LXR-beta (Homo sapiens, UniProt P55055); type: functional, cell-based;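 further: Cell-based luminescence dose-response assay of agonist activity at LXR, run as a confirmatory counterscreen to a daf-12 agonist screen; HEK293 cells with Gal4-LXR fusion and GAL4-driven luciferase reporter; agonist potency from rising luciferase signal of a Gal4-LXR reporter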
T2 sequence (P55055 whole entry): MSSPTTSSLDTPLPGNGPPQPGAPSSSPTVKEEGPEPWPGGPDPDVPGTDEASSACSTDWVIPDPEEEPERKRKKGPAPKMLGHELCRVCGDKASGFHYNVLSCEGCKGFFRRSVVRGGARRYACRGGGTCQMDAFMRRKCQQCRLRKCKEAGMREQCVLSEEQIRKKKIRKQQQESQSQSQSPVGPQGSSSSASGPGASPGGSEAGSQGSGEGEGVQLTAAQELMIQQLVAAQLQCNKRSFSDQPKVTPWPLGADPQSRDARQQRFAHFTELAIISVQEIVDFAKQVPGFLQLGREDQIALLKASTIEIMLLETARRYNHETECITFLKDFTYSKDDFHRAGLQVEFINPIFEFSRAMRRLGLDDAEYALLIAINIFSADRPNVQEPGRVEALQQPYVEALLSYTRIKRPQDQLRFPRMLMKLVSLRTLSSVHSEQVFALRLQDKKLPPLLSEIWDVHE

[20] = inhibitors of SNCA 5'UTR-driven reporter translation, confirmation, H4 neuroglioma cells, luminescence (AID 1988); type: functional, cell-based
[21] = molecular target: Mitogen-activated protein kinase 10 (Homo sapiens, UniProt P53779); assay: Dose response biochemical screening assay for inhibitors of c-Jun N-Terminal Kinase 3 (JNK3). [Related pubchem assays: 746 ]
Mitogen-activated protein kinase 10, sequence (P53779 whole entry): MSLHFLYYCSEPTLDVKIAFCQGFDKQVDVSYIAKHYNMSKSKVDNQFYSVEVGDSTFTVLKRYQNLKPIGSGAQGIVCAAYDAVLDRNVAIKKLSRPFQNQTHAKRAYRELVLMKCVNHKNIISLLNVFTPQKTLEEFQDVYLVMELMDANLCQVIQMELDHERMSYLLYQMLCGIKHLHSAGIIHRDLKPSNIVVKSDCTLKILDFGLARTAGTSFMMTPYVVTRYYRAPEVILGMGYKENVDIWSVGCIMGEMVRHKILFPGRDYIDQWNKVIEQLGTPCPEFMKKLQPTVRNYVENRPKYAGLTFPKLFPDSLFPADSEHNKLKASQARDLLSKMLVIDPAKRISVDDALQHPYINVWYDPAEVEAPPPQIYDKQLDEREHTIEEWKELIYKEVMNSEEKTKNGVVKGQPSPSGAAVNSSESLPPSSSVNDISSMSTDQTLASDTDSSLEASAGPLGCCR

[22] = Luminescence Cell-Based Dose Response HTS to Identify Inhibitors of 5'UTR Stem-Loop Driven Prion Protein mRNA Translation in H4 Neuroglioblastoma Cells. [Related pubchem assays: 1827 (Project Summary), 1813 (Primary HTS)]; type: functional
[23] = inhibitors of firefly luciferase expression or activity, dose response, H4 neuroglioma cells, luminescence (AID 1990); type: functional, cell-based
Albumin = Albumin (Bos taurus, UniProt P02769); assay: Counterscreen for inhibitors of T-cell receptor (TCR)-CD3 interaction: Fluorescence-based biochemical high throughput dose response assay to identify inhibitors of T-cell receptor (TCR)-CD3 interaction using a TAMRA-labeled BSA probe.; type: functional
Albumin, sequence (P02769 whole entry): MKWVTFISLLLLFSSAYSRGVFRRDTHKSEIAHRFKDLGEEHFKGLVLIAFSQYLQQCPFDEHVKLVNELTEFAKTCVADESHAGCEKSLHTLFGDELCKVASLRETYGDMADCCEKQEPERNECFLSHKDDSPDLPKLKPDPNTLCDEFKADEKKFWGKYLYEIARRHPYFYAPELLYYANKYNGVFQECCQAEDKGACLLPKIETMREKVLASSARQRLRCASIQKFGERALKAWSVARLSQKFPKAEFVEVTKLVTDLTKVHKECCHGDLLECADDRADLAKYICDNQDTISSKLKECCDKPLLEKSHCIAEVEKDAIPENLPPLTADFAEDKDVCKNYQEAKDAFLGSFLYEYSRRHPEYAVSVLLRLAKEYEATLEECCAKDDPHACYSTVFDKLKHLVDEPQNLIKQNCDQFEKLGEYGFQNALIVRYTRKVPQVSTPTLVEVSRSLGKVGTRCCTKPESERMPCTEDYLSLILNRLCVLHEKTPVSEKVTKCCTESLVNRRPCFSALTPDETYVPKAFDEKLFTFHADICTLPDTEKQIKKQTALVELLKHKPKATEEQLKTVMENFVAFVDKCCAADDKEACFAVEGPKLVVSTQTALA

OCCNc1nc(Nc2ccccc2)nc2ccccc12
EC50 [1]: 0.0634 µM (active) | IC50 (cells [2]): > 29.9 µM (inactive) | EC50 (cells [3]): > 29.9 µM (inactive) | IC50 [4]: 0.2 µM (active)

CC(C)=CCOc1ccc(/C=C/C(=O)c2ccc(OCC=C(C)C)cc2OCC(=O)O)cc1 [SOFALCONE]
IC50 [5]: 2.92 µM (active) | IC50 [6]: > 6.67 µM (inactive) | IC50 [7]: 1.55 µM (active) | IC50 [8]: 5.4 µM (inactive) | IC50 [9]: 7.44 µM (inactive) | IC50 [10]: 5.53 µM (inactive) | IC50 [11]: > 10 µM (inactive) | IC50 [12]: > 10 µM (inactive) | IC50 [13]: 3.04 µM (active) | IC50 [14]: 5.36 µM (inactive)

CN(C)c1ccc(/C=C/C#N)cc1
IC50 [15]: > 100 µM (active)

C=CC1=C(C)c2cc3[nH]c(cc4nc(cc5[nH]c(cc1n2)c(C)c5CCC(=O)O)C(CCC(=O)O)=C4C)c(C)c3C=C [PROTOPORPHYRIN DISODIUM]
IC50 [16]: 19.6 µM (inactive) | IC50 [17]: > 40 µM (inactive)

Nc1nc2c(-c3ccc(Br)cc3)nnn2c2ccccc12
EC50 (cells [18]): > 67.6 µM (inactive) | EC50 [19]: > 67.6 µM (inactive)

O=P1(O)C=C(c2ccccc2)OC(c2ccccc2)=C1
EC50 (cells [18]): > 67.5 µM (inactive) | EC50 [19]: > 67.5 µM (inactive)

CC1=C(C(=O)OC2CCCCCCC2)C(c2ccc(O)cc2)NC(=O)N1 (stereo unspecified)
EC50 [20]: 23.9 µM (active) | IC50 [21]: 41.9 µM (not active) | EC50 [22]: > 120 µM (not active) | EC50 [23]: 21.1 µM (active)

O=C(NNC(=O)c1ccc2ccccc2c1O)NC1CCCCC1
IC50 (Albumin): > 94.1 µM (inactive)
